According to the supplement of paper PMC10307832:

Columns and labels:
Test in all cases: relative viability (nuclei count vs DMSO), 5 days (fraction); higher = more cells survive
[1] = compound: C1=CC2=C(C=C(C(=C2N=C1)O)N=NC3=CC4=C(C=C3)C=C(C=C4)S(=O)(=O)O)S(=O)(=O)O + N=C(N)NC(=N)NCCc1ccccc1 [Phenformin] (partner 250 µM)
Outline: (§1)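 Dosing by pin tool came one day after lung cancer cell lines were seeded in 1536-well plates, using either one drug or a fixed anchor-drug dose plus five library-drug doses (not always all listed) in √10 steps. After 5 days, nuclei were counted on 4× images. Relative viability is treated-well nuclei count divided by vehicle-well nuclei count, and values are medians of duplicate plates.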

[2] = compound: O=C(NC1CCNCC1)c1n[nH]cc1NC(=O)c1c(Cl)cccc1Cl [AT-7519] + O=C(CCCCCCC(=O)Nc1ccccc1)NO [Vorinostat] (partner 1 µM)
Outline: as §1

[3] = compound: O=C(NC1CCNCC1)c1n[nH]cc1NC(=O)c1c(Cl)cccc1Cl [AT-7519] + CS(=O)(=O)N1CCN(Cc2cc3nc(-c4cccc5[nH]ncc45)nc(N4CCOCC4)c3s2)CC1 [Pictilisib] (partner 1 µM)
Outline: as §1

[4] = compound: O=C(NC1CCNCC1)c1n[nH]cc1NC(=O)c1c(Cl)cccc1Cl [AT-7519] + CC(=O)Nc1cccc(-n2c(=O)n(C3CC3)c(=O)c3c(Nc4ccc(I)cc4F)n(C)c(=O)c(C)c32)c1 [Trametinib] (partner 0.02 µM)
Outline: as §1

Row | Cell Line | relative viability ([1]; first compound 0.08 µM) | relative viability ([1]; first compound 0.253 µM) | relative viability ([1]; first compound 0.8 µM) | relative viability ([1]; first compound 2.53 µM) | relative viability ([1]; first compound 8 µM) | relative viability ([2]; first compound 0.01 µM) | relative viability ([2]; first compound 0.03162 µM) | relative viability ([2]; first compound 0.3162 µM) | relative viability ([2]; first compound 1 µM) | relative viability ([3]; first compound 0.01 µM) | relative viability ([3]; first compound 0.03162 µM) | relative viability ([3]; first compound 0.3162 µM) | relative viability ([3]; first compound 1 µM) | relative viability ([4]; first compound 0.01 µM) | relative viability ([4]; first compound 0.03162 µM) | relative viability ([4]; first compound 0.3162 µM) | relative viability ([4]; first compound 1 µM)
1 | 201T | 0.458 | 0.426 | 0.458 | 0.433 | 0.306 | 0.975 | 0.952 | 1.01 | 1.12 | 0.684 | 0.712 | 0.7 | 0.77 | 0.731 | 0.798 | 0.684 | 0.64
2 | A549 | 0.203 | 0.155 | 0.189 | 0.186 | 0.0602 |  |  |  |  | 0.463 | 0.466 | 0.421 | 0.0948 |  |  |  | 
3 | A-427 | 0.324 | 0.293 | 0.283 | 0.288 | 0.313 | 0.894 | 0.863 | 0.927 | 0.768 | 0.711 | 0.713 | 0.574 | 0.253 | 0.728 | 0.71 | 0.716 | 0.338
4 | ABC-1 | 0.236 | 0.245 | 0.236 | 0.237 | 0.245 | 1.16 | 1.14 | 1.01 | 1.28 | 0.837 | 0.688 | 0.527 | 0.202 |  |  |  | 
5 | BEN | 0.254 | 0.274 | 0.267 | 0.298 | 0.234 | 0.6 | 0.537 | 0.593 | 0.579 | 0.532 | 0.512 | 0.697 | 0.468 | 0.99 | 1.04 | 0.885 | 1.11
6 | CAL-12T | 0.536 | 0.522 | 0.502 | 0.693 | 0.358 | 0.777 | 0.653 | 0.543 | 0.108 |  | 0.514 | 0.214 | 0.193 | 0.403 | 0.289 | 0.217 | 0.131
7 | COR-L23 | 0.488 | 0.43 | 0.422 | 0.419 | 0.45 | 0.508 | 0.507 | 0.344 | 0.152 | 0.728 | 0.598 | 0.291 | 0.0899 | 0.83 | 0.643 | 0.469 | 0.103
8 | COR-L 105 | 0.459 | 0.464 | 0.421 | 0.441 | 0.463 | 0.791 | 0.856 | 0.686 | 0.499 | 0.372 | 0.423 | 0.254 | 0.246 | 0.438 | 0.382 | 0.427 | 0.296
9 | Calu-6 |  |  |  |  |  |  |  |  |  | 0.863 | 0.919 | 0.689 | 0.131 |  |  |  | 
10 | ChaGo-K-1 | 0.444 | 0.491 | 0.525 | 0.531 | 0.359 | 0.734 | 0.741 | 0.797 | 0.752 | 0.589 | 1.16 | 0.536 | 0.547 | 0.949 | 0.884 | 0.936 | 0.795
11 | EBC-1 |  |  |  |  |  |  |  |  |  | 0.393 | 0.31 | 0.288 | 0.139 |  |  |  | 
12 | EKVX | 0.237 | 0.225 | 0.235 | 0.232 | 0.139 | 0.671 | 0.636 | 0.535 | 0.786 | 0.449 | 0.385 | 0.393 | 0.346 | 0.326 | 0.312 | 0.525 | 0.3
13 | EMC-BAC-2 | 0.587 | 0.561 | 0.514 | 0.526 | 0.427 | 0.424 | 0.422 | 0.531 | 0.878 | 0.56 | 0.524 | 0.506 | 0.538 | 0.92 | 0.835 | 0.845 | 0.376
14 | EPLC-272H | 0.284 | 0.319 | 0.292 | 0.28 | 0.323 | 0.406 | 0.328 | 0.36 | 0.0395 | 0.384 | 0.311 | 0.249 | 0.17 | 0.309 | 0.312 | 0.275 | 0.22
15 | H3255 | 0.348 | 0.377 | 0.416 | 0.394 | 0.421 | 0.794 | 0.816 | 0.905 | 0.787 | 0.537 | 0.502 | 0.441 | 0.313 | 0.53 | 0.546 | 0.715 | 0.574
16 | HARA | 0.467 | 0.459 | 0.464 | 0.544 | 0.479 | 0.479 | 0.527 | 0.588 | 0.223 | 0.361 | 0.354 | 0.554 | 0.279 | 0.805 | 0.551 | 0.796 | 0.313
17 | HCC-15 | 0.491 | 0.481 | 0.457 | 0.422 | 0.444 | 0.857 | 0.796 | 0.799 | 0.565 | 0.766 | 0.764 | 0.59 | 0.323 | 0.404 | 0.371 | 0.374 | 0.24
18 | HCC-44 | 0.126 | 0.218 | 0.249 | 0.17 | 0.184 | 1.16 | 1.08 | 1.11 | 1.08 | 0.588 | 0.625 | 0.552 | 0.688 | 1.1 | 1.04 | 1.06 | 0.716
19 | HCC-78 | 0.725 | 0.617 | 0.651 | 0.74 | 0.685 | 0.411 | 0.409 | 0.438 | 0.417 | 0.208 | 0.214 | 0.146 | 0.209 | 0.688 | 0.712 | 0.963 | 0.46

Row | Cell Line | relative viability ([1]; first compound 0.08 µM) | relative viability ([1]; first compound 0.253 µM) | relative viability ([1]; first compound 0.8 µM) | relative viability ([1]; first compound 2.53 µM) | relative viability ([1]; first compound 8 µM) | relative viability ([2]; first compound 0.01 µM) | relative viability ([2]; first compound 0.03162 µM) | relative viability ([2]; first compound 0.3162 µM) | relative viability ([2]; first compound 1 µM) | relative viability ([3]; first compound 0.01 µM) | relative viability ([3]; first compound 0.03162 µM) | relative viability ([3]; first compound 0.3162 µM) | relative viability ([3]; first compound 1 µM) | relative viability ([4]; first compound 0.01 µM) | relative viability ([4]; first compound 0.03162 µM) | relative viability ([4]; first compound 0.3162 µM) | relative viability ([4]; first compound 1 µM)
20 | HCC-366 | 0.646 | 0.618 | 0.585 | 0.631 | 0.589 | 0.254 | 0.325 | 0.278 | 0.241 | 0.0989 | 0.152 | 0.111 | 0.123 | 0.323 | 0.281 | 0.316 | 0.17
21 | HCC-827 | 0.405 | 0.335 | 0.397 | 0.416 | 0.45 | 0.928 | 0.827 | 0.958 | 1.02 | 1.15 | 0.875 | 0.819 | 0.9 | 0.488 | 0.519 | 0.542 | 0.28
22 | HOP-62 | 0.836 | 0.584 | 0.618 | 0.645 | 0.53 | 0.555 | 0.608 | 0.682 | 0.565 | 0.817 | 0.742 | 0.486 | 0.293 | 0.344 | 0.347 | 0.401 | 0.176
23 | IA-LM |  |  |  |  |  | 0.607 | 0.501 | 1.01 | 0.723 | 0.31 | 0.328 | 0.191 | 0.0278 |  |  |  | 
24 | LC-2-ad | 0.575 | 0.553 | 0.548 | 0.588 | 0.651 | 0.717 | 0.665 | 0.748 | 0.781 | 0.653 | 0.366 | 0.386 | 0.158 | 0.892 | 0.936 | 0.933 | 0.506
25 | LCLC-97TM1 | 0.403 | 0.491 | 0.434 | 0.45 | 0.384 | 0.955 | 0.703 | 0.526 | 0.379 | 0.196 | 0.176 | 0.211 | 0.152 | 0.175 | 0.173 | 0.224 | 0.117
26 | LCLC-103H | 0.33 | 0.356 | 0.298 | 0.358 | 0.369 | 0.848 | 0.774 | 0.768 | 0.814 | 0.624 | 0.517 | 0.488 | 0.557 | 0.686 | 0.682 | 0.72 | 0.587
27 | LK-2 | 0.639 | 0.36 | 0.303 | 0.381 | 0.332 | 0.247 | 0.258 | 0.332 | 0.241 | 0.785 | 0.503 | 0.497 | 0.265 | 0.643 | 0.67 | 0.716 | 0.271
28 | LOU-NH91 | 0.644 | 0.74 | 0.706 | 0.712 | 0.607 | 0.932 | 1 | 0.897 | 0.82 | 0.551 | 0.536 | 0.516 | 0.479 | 0.805 | 0.774 | 0.792 | 0.726
29 | LU99A | 0.989 | 0.796 | 0.869 | 0.721 | 0.631 | 0.481 | 0.462 | 0.469 | 0.448 | 0.365 | 0.307 | 0.283 | 0.251 | 0.67 | 0.53 | 0.52 | 0.24
30 | NCI-H522 | 0.658 | 0.64 | 0.71 | 0.603 | 0.612 | 0.933 | 0.815 | 0.963 | 1.05 |  |  |  |  | 0.717 | 0.835 | 0.757 | 0.717
31 | NCI-H1299 |  |  |  |  |  |  |  |  |  | 0.865 | 0.738 | 0.507 | 0.127 |  |  |  | 
32 | NCI-H1563 | 0.63 | 0.677 | 0.684 | 0.626 | 0.629 |  |  |  |  | 0.591 | 0.612 | 0.764 | 0.511 |  |  |  | 
33 | NCI-H1648 |  |  |  |  |  | 0.479 |  | 0.29 | 0.3 |  |  |  |  | 0.39 |  | 0.366 | 0.335
34 | NCI-H1703 |  |  |  |  |  |  |  |  |  | 0.322 | 0.234 | 0.241 | 0.129 |  |  |  | 
35 | NCI-H1792 | 0.261 | 0.343 | 0.254 |  | 0.295 |  |  |  |  | 0.196 | 0.218 | 0.234 | 0.252 | 0.399 | 0.4 | 0.506 | 0.225
36 | NCI-H2342 | 0.629 | 0.582 | 0.537 | 0.621 | 0.528 | 0.773 | 0.696 | 0.772 | 0.631 |  |  |  |  | 0.779 | 0.784 | 0.809 | 0.817
37 | SW 900 | 0.576 | 0.669 | 0.517 | 0.552 | 0.275 | 0.398 | 0.482 | 0.294 | 0.493 |  |  |  |  | 0.986 | 0.744 | 0.659 | 0.401
